Data published in ChEMBL document CHEMBL5506048, “Modular Biomimetic Strategy Enables Discovery and SAR Exploration of Oxime Macrocycles as Influenza A Virus (H1N1) Inhibitors” (J Med Chem, 2024).
The source made the active and inactive calls. No cut-off for these calls is given here.

Key:
Influenza A virus [1] = test: Antiviral activity against Influenza virus H1N1 A/Puerto Rico/8/34 (A/PR/8/34) infected in human Calu-3 cells assessed as viral RNA at CC50 concentration for human Calu-3 cells measured after 3 days by one-time real time PCR assay; assay type: functional, organism-based; settings: time 3.0 day
Calu-3 = test: Cytotoxicity against human Calu-3 cells assessed as cell viability measured after 3 days by CellTiter-Lumi Steady Plus Luminescent Cell Viability Assay Kit; assay type: functional; settings: Calu-3, 72 h, time 3 day
Influenza B virus = test: Antiviral activity against Influenza virus Flu B (B/Taiwan/2/62) infected in human Calu-3 cells assessed as viral RNA measured after 3 days by one-time real time PCR assay; assay type: functional, organism-based; settings: B/Taiwan/2/62, Calu-3, 72 h
Influenza A virus [2] = test: Antiviral activity against HIV pseudotyped H5N1 HA infected in human 293T cells assessed as inhibition of viral entry into cells by measuring intensity of chemiluminescence measured after 3 days by Bright-Glo luciferase assay; assay type: functional, organism-based; settings: HEK293T, time 3.0 day
Influenza A virus [3] = test: Antiviral activity against Influenza virus H3N2 (A/Hong Kong/8/68) infected in human Calu-3 cells assessed as viral RNA measured after 3 days by one-time real time PCR assay; assay type: functional, organism-based; settings: Calu-3, 72 h
Influenza A virus [4] = test: Antiviral activity against Influenza virus H1N1 A/Puerto Rico/8/34 (A/PR/8/34) infected in human Calu-3 cells assessed as viral RNA measured after 3 days by one-time real time PCR assay; assay type: functional, organism-based
Ebolavirus = test: Antiviral activity against HIV pseudotyped EBOV GP infected in human 293T cells assessed as inhibition of viral entry into cells by measuring intensity of chemiluminescence measured after 3 days by Bright-Glo luciferase assay; assay type: functional, organism-based; settings: HEK293T, time 3.0 day
Influenza A virus [5] = test: Antiviral activity against Influenza virus HIN1 (A/California/07/2009 pdm09) infected in human Calu-3 cells assessed as viral RNA measured after 3 days by one-time real time PCR assay; assay type: functional, organism-based; settings: Calu-3, 72 h
Influenza A virus [6] = test: Antiviral activity against HIV pseudotyped H1N1 HA infected in human 293T cells assessed as inhibition of viral entry into cells by measuring intensity of chemiluminescence measured after 3 days by Bright-Glo luciferase assay; assay type: functional, organism-based; settings: HEK293T, time 3.0 day
[7] = Selectivity index, ratio of CC50 for human Calu-3 cells to EC50 for antiviral activity against Influenza virus HINI A/Puerto Rico/8/34 (A/PR/8/34); assay type: toxicity; settings: read-out: Selectivity Index

Compound | Activity (Influenza A virus [1]) | CC50 (Calu-3) [µM] | EC50 (Influenza A virus [4]; Calu-3, 72 h) [µM] | EC90 (Influenza A virus [4]; Calu-3, 72 h, time 3 day) [µM] | selectivity ratio [7] | also measured
C=C1Cc2cc(C(F)(F)F)ccc2C(=O)NCC(C)(C)C(=O)CCCCOC1=O | inactive | > 100 | – | – | – | –
C=C1Cc2cc(C(F)(F)F)ccc2C(=O)NCC(C)(C)/C(=N/OC)CCC(C2CC2)OC1=O (stereo unspecified) | inactive | 42.9 | – | – | – | –
C=C1Cc2cc(C(F)(F)F)ccc2C(=O)NCC(C)(C)/C(=N/OC)CCC(c2ccc(F)cc2)OC1=O (stereo unspecified) | inactive | 27.3 | – | – | – | –
C=C1Cc2cc(C(F)(F)F)ccc2C(=O)NCC(C)(C)/C(=N/OCC23C[C@H]4C[C@@H](C2)C[C@@H](C3)C4)CCC(C)OC1=O (stereo partly specified) | inactive | 47 | – | – | – | –
C=C1Cc2cc(C(F)(F)F)ccc2C(=O)NCC(C)(C)/C(=N/OC(CC)CC)CCC(C)OC1=O (stereo unspecified) | inactive | 31.9 | – | – | – | –
C=C1Cc2cc(C(F)(F)F)ccc2C(=O)NCC(C)(C)/C(=N/OC)CC[C@H](C)OC1=O | – | 90.4 | 0.013 | 0.235 | 6950 | EC50 (Influenza B virus): > 50 µM; Activity (Influenza A virus [2]): inactive; EC50 (Influenza A virus [3]): > 50 µM; Activity (Ebolavirus): inactive; EC50 (Influenza A virus [5]): 0.048 µM; Activity (Influenza A virus [6]): Dose-Dependent Effect
C=C1Cc2cc(C(F)(F)F)ccc2C(=O)NCC(C)(C)/C(=N/OCC(F)(F)F)CCCOC1=O | – | > 100 | 0.428 | 1.87 | > 233 | –
C=C1Cc2cc(C(F)(F)F)ccc2C(=O)NCC2(CC2)/C(=N/OC)CCCOC1=O | – | > 100 | 0.247 | 1.23 | > 404 | –
C=C1Cc2cc(C(F)(F)F)ccc2C(=O)NCC(C)(C)/C(=N/OC)CC[C@@H](C)OC1=O | – | 26.5 | 1.47 | > 100 | 18 | –
CO/N=C1\CCCCOC(=O)/C(=C/c2ccc(F)cc2)Cc2cc(C(F)(F)F)ccc2C(=O)NCC1(C)C | inactive | > 100 | – | – | – | –
C=C1Cc2cc(C(F)(F)F)ccc2C(=O)NCC(C)(C)/C(=N/OC)CCC(CO)OC1=O (stereo unspecified) | – | > 100 | 20.2 | > 100 | > 4 | –
C=C(Cc1cc(C(F)(F)F)ccc1C(=O)NCC(C)(C)/C(CCCO)=N/OC)C(=O)O | inactive | > 100 | – | – | – | –
C=C1Cc2cc(C(F)(F)F)ccc2C(=O)NCC(C)(C)/C(=N/OC)CCC(CC)OC1=O (stereo unspecified) | inactive | 42.4 | – | – | – | –
C=C1Cc2cc(C(F)(F)F)ccc2C(=O)NCC(C)/C(=N/OC)CCCOC1=O (stereo unspecified) | inactive | > 100 | – | – | – | –
C=C1Cc2cc(C(F)(F)F)ccc2C(=O)NCC(C)(C)/C(=N/OC)CCC(C(=O)O)OC1=O (stereo unspecified) | inactive | > 100 | – | – | – | –
C=C1Cc2cc(OC)ccc2C(=O)NCC(C)(C)/C(=N/OC)CCCOC1=O | – | > 100 | 1.05 | 3.55 | > 95 | –
C=C1Cc2cc(C(F)(F)F)ccc2C(=O)NCC(C)(C)/C(=N/OC)CCC(C)OC1=O (stereo unspecified) | – | > 100 | 0.096 | 0.823 | > 1040 | –
C=C1Cc2cc(C(F)(F)F)ccc2C(=O)NCC(C)(C)/C(=N/OC)CCCOC1=O | – | > 100 | 0.441 | 0.56 | > 226 | –
C=C1Cc2cc(C(F)(F)F)ccc2C(=O)NCC(C)(C)/C(=N/OC)CCC(CN2CCOCC2)OC1=O (stereo unspecified) | inactive | > 100 | – | – | – | –

Compound | Activity (Influenza A virus [1]) | CC50 (Calu-3) [µM] | EC50 (Influenza A virus [4]; Calu-3, 72 h) [µM] | EC90 (Influenza A virus [4]; Calu-3, 72 h, time 3 day) [µM] | selectivity ratio [7] | also measured
C=C1Cc2cc(NC(C)=O)ccc2C(=O)NCC(C)(C)/C(=N/OC)CCCOC1=O | – | > 100 | 2.69 | 5.06 | > 37 | –
C=C1Cc2cc(F)ccc2C(=O)NCC(C)(C)/C(=N/OC)CCCOC1=O | – | > 100 | 1.65 | 1.98 | > 60 | –
CO/N=C1\CCCCOC(=O)/C(=C/c2ccc(N3CCOCC3)cc2)Cc2cc(C(F)(F)F)ccc2C(=O)NCC1(C)C | inactive | > 100 | – | – | – | –
C=C1Cc2cc(C(F)(F)F)ccc2C(=O)NCC2(CCC2)/C(=N/OC)CC[C@H](C)OC1=O | – | 67.3 | 0.22 | 0.68 | 305 | –
C=C1Cc2cc(C(F)(F)F)ccc2C(=O)NCC(C)(C)/C(=N/OC)CCCNC1=O | – | > 100 | 0.657 | 1.39 | > 152 | –
CCC(CC)Oc1ccc(/C=C2\Cc3cc(C(F)(F)F)ccc3C(=O)NCC(C)(C)/C(=N/OC)CCCCOC2=O)cc1 | inactive | > 100 | – | – | – | –
C=C1Cc2cc(C(F)(F)F)ccc2C(=O)NCC(C)(C)/C(=N/OC)CCOC1=O | inactive | > 100 | – | – | – | –
C=C1Cc2cc(C(F)(F)F)ccc2C(=O)NCC(C)(C)/C(=N/OC(C)C)CCC(C)OC1=O (stereo unspecified) | inactive | 36.6 | – | – | – | –
C=C1Cc2cc(N3CCOCC3)ccc2C(=O)NCC(C)(C)/C(=N/OC)CCCOC1=O | – | > 100 | 17.9 | – | > 8 | EC90 (Influenza A virus [4]; time 3.0 day): inactive
C=C1Cc2cc(C(F)(F)F)ccc2C(=O)NCC(C)(C)/C(=N/OC)CCCCCCOC1=O | inactive | 15.6 | – | – | – | –
C=C1Cc2ccccc2C(=O)NCC(C)(C)/C(=N/OC)CCCOC1=O | – | > 100 | 0.985 | 18.3 | > 101 | –
C=C1Cc2cc(C(F)(F)F)ccc2C(=O)NCC(C)(C)/C(=N/OC)CCCCOC1=O | – | > 100 | 2.3 | 46.5 | > 43 | –
C=C1Cc2cc(C(F)(F)F)ccc2C(=O)NCC(C)(C)/C(=N/OC)CCC(CNCCO)OC1=O (stereo unspecified) | inactive | > 100 | – | – | – | –
CO/N=C1\CCCCOC(=O)C(CSCCC(=O)O)Cc2cc(C(F)(F)F)ccc2C(=O)NCC1(C)C (stereo unspecified) | inactive | > 100 | – | – | – | –
C=C1Cc2ccc(C(F)(F)F)cc2C(=O)NCC(C)(C)/C(=N/OC)CCCOC1=O | – | 73.6 | 0.264 | 1.05 | 278 | –
C=C1Cc2cc(C(F)(F)F)ccc2C(=O)NCC(C)(C)/C(=N/OC)CCCCCOC1=O | inactive | 40.7 | – | – | – | –
C=C1Cc2cc(C(F)(F)F)ccc2C(=O)NCC(C)(C)/C(=N/O)CCCCOC1=O | – | > 100 | 57.3 | – | > 1.7 | EC90 (Influenza A virus [4]; time 3.0 day): inactive
CO/N=C1\CCCOC(=O)C(C)Cc2cc(C(F)(F)F)ccc2C(=O)NCC1(C)C (stereo unspecified) | – | > 100 | 2.74 | > 100 | > 36 | –
